Data: patent US9388419B2 (The Regents of the University of Colorado, a body corporate, priority 2009, dated 2016)
Where two headings read alike, the source gives them in different places.

How the values were obtained:
[1] = system: E. coli Mach1-T1; test: Minimum inhibitory concentration (MIC) of 3-HP, microaerobic, 96 well-plate, MOPS minimal media; assay type: cell-based, Escherichia coli; conditions: E. coli Mach1-T1, MOPS minimal media with the supplement at its optimal concentration vs unsupplemented, microaerobic, 24 hours
Description: Overnight cultures of strains were grown in 5 ml LB (with antibiotic where appropriate). A 1 v/v % was used to inoculate a 15 ml conical tube filled to the top with MOPS minimal media and capped. After the cells reached mid exponential phase, the culture was diluted to an OD600 of 0.200. The cells were further diluted 1:20 and a 10 ul aliquot was used to inoculate each well (˜10^4 cells per well).
The minimum inhibitory concentration (MIC) was determined microaerobically in a 96 well-plate format. Overnight cultures of strains were grown in 5 mL LB (with antibiotic where appropriate). A 1% (v/v) inoculum was introduced into a 15 ml culture of MOPS minimal media. After the cells reached mid-exponential phase, the culture was diluted to an OD600 of 0.200. The cells were further diluted 1:20 and a 10 μL aliquot was used to inoculate each well of a 96 well plate (˜10^4 cells per well).

[2] = system: Yeast strains (S288C background); assay type: cell-based, Saccharomyces cerevisiae; conditions: anaerobic; for Average MIC Assay Result (g/L 3-HP): MIC of 3-HP for yeast S288C in SD media with the named supplement(s); for % Increase Over Control: increase of 3-HP MIC over S288C in SD without supplement
Description: The minimum inhibitory concentration (MIC) was determined anaerobically in a 96 well-plate format. […] A 1% (v/v) inoculum was introduced into a 5 ml culture of SD minimal media without vitamins. After the cells reached mid-exponential phase, the culture was diluted to an OD600 of 0.200. The cells were further diluted 1:5 and a 10 μL aliquot was used to inoculate each well of a 96 well plate (˜10^4 cells per well) to total volume of 100 uL. […] Plates were incubated for 72 hours at 30 C. […] Plates were sealed in biobag anaerobic chambers that contained gas generators for anaerobic conditions and incubated for 72 hours at 30 C.

[3] = system: Yeast strains (S288C background); assay type: cell-based, Saccharomyces cerevisiae; conditions: aerobic; for Average MIC Assay Result (g/L 3-HP): MIC of 3-HP for yeast S288C in SD media with the named supplement(s); for % Increase Over Control: increase of 3-HP MIC over S288C in SD without supplement
Description: The minimum inhibitory concentration (MIC) was determined aerobically in a 96 well-plate format. […] Media supplements were added according to levels reported in the Supplements Table, where specified. Overnight cultures of strains were grown in triplicate in 5 mL SD media with vitamins (Methods in Enzymology vol. 350, page 17 (2002)). A 1% (v/v) inoculum was introduced into a 5 ml culture of SD minimal media without vitamins. After the cells reached mid-exponential phase, the culture was diluted to an OD600 of 0.200. The cells were further diluted 1:5 and a 10 μL aliquot was used to inoculate each well of a 96 well plate (˜10^4 cells per well) to total volume of 100 uL. […] Plates were incubated for 72 hours at 30 C.

[4] = system: E. coli; assay type: cell-based, Escherichia coli; conditions: strain BW25113, M9 media with the named supplement(s), aerobic; MIC of 3-HP versus M9 control without supplement
Description: (§1) For MIC evaluations, the final results are expressed in chemical agent concentrations determined by analysis of the stock solution by HPLC (i.e., see Subsection Mb).
(§2) The minimum inhibitory concentration (MIC) was determined aerobically in a 96 well-plate format. […] Media supplements were added according to levels reported in the Supplements Table, where specified. Overnight cultures of strains were grown in triplicate in 5 mL LB (with antibiotic where appropriate). A 1% (v/v) inoculum was introduced into a 5 ml culture of M9 minimal media.

[5] = system: B. subtilis; test: MIC protocol B. subtilis aerobic (Common Methods, M9 media + glutamate, 24 hours); assay type: cell-based, Bacillus subtilis; conditions: for Avg 24 hr ΔOD600: B. subtilis 168 in M9 + glu + trp with the named supplement(s), 3HP tolerance; for % Increase Over Control: increase of 24 hr ΔOD600 over B. subtilis 168 without supplement
Description: as §1
as §2, with “Table” for “Table,”, “media+glutamate.” for “media.”

[6] = system: E. coli; assay type: cell-based, Escherichia coli; conditions: anaerobic; for % Increase Over Control: increase of 3-HP MIC over BW25113 in M9 without supplement; for MIC Assay Result (g/L 3-HP): MIC of 3-HP for E. coli BW25113 in M9 media with the named supplement(s), 24-hour
Description: as §1
as §2, with “anaerobically” for “aerobically”

[7] = system: strain BX3_0194; test: 3-HP production by BX3_0194 at 100-mL scale in SM3 medium, without or with 10 μg/ml cerulenin; assay type: cell-based, E. coli
Description: Cultures were started from freezer stocks by standard practice (Sambrook and Russell, 2001) into 50 mL of LB media plus 100 μg/mL ampicillin and grown to stationary phase overnight at 37° C. with rotation at 225 rpm. Five ml of this culture were transferred to 100 ml of SM3 media plus 40 g/L glucose, 100 μg/ml ampicillin, and 1 mM IPTG in triplicate 250-ml baffled flasks and incubated at 37° C., 225 rpm. […] Dry cell weight (DCW) is calculated as 0.33 times the measured OD600 value, based on baseline DCW to OD600 determinations. All data are the average of triplicate cultures.

[8] = system: E. coli K12; assay type: cell-based, Escherichia coli; conditions: E. coli K12, M9 minimal media supplemented with the substance (polyamines 0.1 g/L, sodium bicarbonate 20 mM), aerobic, 24 hours
Description: Overnight cultures of strains were grown in 5 ml LB (with antibiotic where appropriate) at 37° C. in a shaking incubator. A 1 v/v % was used to inoculate 10 mL of M9 minimal media. After the cells reached mid-exponential phase, the culture was diluted to an OD600 of 0.200. The cells were further diluted 1:20 and a 10 ul aliquot was used to inoculate each well (˜10^4 cells per well). […] The MIC endpoint is the lowest concentration of compound at which there was no visible growth.

| SMILES | MIC increase (3-HP) resulting from supplementation [1] | % Increase Over Control [2] | % Increase Over Control [4] | further results |
| --- | --- | --- | --- | --- |
| O=C(O)c1cccc(O)c1O [2,3-didyroxybenzoic acid, 2,3-dihydroxybenzoic acid] | 33% | – | – | – |
| CCC(=O)C(=O)O [2-oxobutyrate (B)] | – | 2% | – | Average MIC Assay Result (g/L 3-HP) [2]: 38 g/L; Average MIC Assay Result (g/L 3-HP) [3]: 50 g/L; % Increase Over Control [3]: 11% |
| N[C@@H](CC(=O)O)C(=O)O [Aspartate] | – | – | – | % Increase Over Control [3]: 26% |
| O=C(O)O [Bicarbonate (C)] | – | 140% | 59% | Average MIC Assay Result (g/L 3-HP) [2]: 90 g/L |
| NCCCCCN [Cadaverine (C)] | – | 60% | – | – |
| O=C(O)CC(O)(CC(=O)O)C(=O)O [Citrate] | – | – | – | Avg 24 hr ΔOD600 [5]: 0.30 |
| NC(=O)NCCC[C@H](N)C(=O)O [Citrulline (C)] | – | – | 9% | Average MIC Assay Result (g/L 3-HP) [2]: 97 g/L; Average MIC Assay Result (g/L 3-HP) [3]: 58 g/L; % Increase Over Control [3]: 28% |
| NC(=O)CC[C@H](N)C(=O)O [Glutamine(C)] | – | – | 9% | – |
| NCC(=O)O [Glycine (B)] | – | 60% | – | Average MIC Assay Result (g/L 3-HP) [2]: 60 g/L; Average MIC Assay Result (g/L 3-HP) [3]: 50 g/L; % Increase Over Control [3]: 11% |
| NC(CCS)C(=O)O (stereo not drawn) [Homocysteine (B)] | – | 7% | 9% | Average MIC Assay Result (g/L 3-HP) [2]: 40 g/L |
| CC[C@H](C)[C@H](N)C(=O)O [Isoleucine (B)] | – | 2% | 17% | Average MIC Assay Result (g/L 3-HP) [2]: 38 g/L |
| NCCCC[C@H](N)C(=O)O [Lysine (D)] | – | 20% | 33% | Average MIC Assay Result (g/L 3-HP) [2]: 45 g/L; % Increase Over Control [6]: 39% |
| CSCC[C@H](N)C(=O)O [Methionine] | – | – | – | Avg 24 hr ΔOD600 [5]: 0.15 |
| NCCC[C@H](N)C(=O)O [Ornithine(C)] | – | – | 9% | – |
| N[C@@H](Cc1ccccc1)C(=O)O [Phenylalanine (A)] | – | 2% | 17% | – |
| N[C@@H](CO)C(=O)O [Serine (B)] | – | 20% | 17% | Average MIC Assay Result (g/L 3-HP) [2]: 45 g/L; % Increase Over Control [6]: 7% |
| O=C(O)C1=C[C@@H](O)[C@@H](O)[C@H](O)C1 [Shikimate (A)] | – | 60% | 3% | Average MIC Assay Result (g/L 3-HP) [2]: 60 g/L; Average MIC Assay Result (g/L 3-HP) [3]: 80 g/L; % Increase Over Control [3]: 78% |

| SMILES | MIC increase (3-HP) resulting from supplementation [1] | % Increase Over Control [2] | % Increase Over Control [4] | further results |
| --- | --- | --- | --- | --- |
| NCCCCNCCCN [Spermidine (C)] | – | 60% | – | – |
| Nc1nc(=O)c2c([nH]1)NC[C@@H](CNc1ccc(C(=O)N[C@@H](CCC(=O)O)C(=O)O)cc1)N2 [Tetrahydrofolate (A)] | – | – | 9% | MIC Assay Result (g/L 3-HP) [6]: 40.0 g/L; % Increase Over Control [6]: 33% |
| C[C@@H](O)[C@H](N)C(=O)O [Threonine (B)] | – | 2% | – | – |
| N[C@@H](Cc1c[nH]c2ccccc12)C(=O)O [Tryptophan (A)] | – | 47% | – | % Increase Over Control [3]: 20% |
| C/C=C/C/C=C/CCC(=O)[C@H]1O[C@H]1C(N)=O [cerulenin] | – | – | – | 3HP ([7]; 4 hr): 0.003 g/L; 3HP ([7]; 6 hr): 0.14 g/L; 3HP ([7]; 8 hr): 0.43 g/L; 3HP ([7]; 24 hr): 1.43 g/L |
| Cl.NC1CCSC1=O (stereo not drawn) [homocysteine thiolactone hydrochloride] | 60% | – | – | – |
| N[C@@H](CCO)C(=O)O [homoserine] | 33% | – | – | – |
| CCC(=O)C(=O)O [oxobutanoate] | 7% | – | – | – |
| Nc1ccc(C(=O)O)cc1 [p-aminobenzoate (A)] | – | – | 27% | MIC Assay Result (g/L 3-HP) [6]: 40.0 g/L; % Increase Over Control [6]: 33% |
| Nc1ccc(C(=O)O)cc1 [p-aminobenzoic acid] | 7% | – | – | Avg 24 hr ΔOD600 [5]: 0.07; % Increase Over Control [5]: 89% |
| NNC(=O)c1ccc(O)cc1 [p-hydroxybenzoic acid hydrazide] | 33% | – | – | – |
| N[C@@H](Cc1ccccc1)C(=O)O [phenylalanine] | 33% | – | – | – |
| Cc1ncc(CO)c(CO)c1O.Cl [pyridoxine hydrochloride] | 0% | – | – | – |
| O=C([O-])O.[Na+] [sodium bicarbonate] | – | – | – | Avg 24 hr ΔOD600 [5]: 0.06; % Increase Over Control [5]: 56%; Minimum inhibitory concentration (MIC) of 3-HP in supplemented media [8]: 30 mg/mL |
| C[C@@H](O)[C@H](N)C(=O)O [threonine] | 3% | – | – | – |
| N[C@@H](Cc1c[nH]c2ccccc12)C(=O)O [tryptophan] | 33% | – | – | – |
| N[C@@H](Cc1ccc(O)cc1)C(=O)O [tyrosine] | 40% | – | – | – |
